Laboratory results published in article PMC10907374, “G2019S selective LRRK2 kinase inhibitor abrogates mitochondrial DNA damage” (NPJ Parkinson's Disease, 2024).

Key:
wild-type HEK293 cells = test: Mitophagy (Mtphagy dye / Lyso dye live cell imaging) in wild-type HEK293 cells; assay type: cell-based, human; settings: 20 μM FCCP, 3 h
Protocol: (§1) Thirty-five mm cell culture dishes (Cellvis, D35-20-1.5-N) were coated with poly-D-lysine (Sigma-Aldrich, P7280-5MG) for 5 min, washed with cell culture grade water (Sigma-Aldrich, W3500), and allowed to dry for at least 1 h before plating. LRRK2^G2019S/G2019S KI HEK293 and wild-type cells were passaged as described above and plated at 300,000 cells per well on poly-D-lysine-coated dishes. […] Following this, cells were washed three times with serum-free medium, and a working solution of Mtphagy dye (Dojindo, MD-01) was prepared in serum-free medium according to manufacturer protocols. Cultures were incubated with Mtphagy dye for 30 min, followed by three washes with serum-free medium. Complete medium was used to prepare a 20 µM FCCP (Abcam, ab120081) or DMSO control treatment solution, which was used to treat cells for 3 h. Following treatment, cells were then washed 3 times with serum-free medium, and a working solution of Lyso dye (Dojindo, MD-01) was prepared in serum-free medium and used to treat cells for 30 min. Complete medium lacking phenol red was prepared for use in confocal live cell imaging by combining phenol red-free DMEM/F-12 (Fisher Scientific, 21-041-025), FBS (VWR, 97068-085), and penicillin-streptomycin (VWR, 45000-652). Following Lyso dye treatment, cultures were washed three times with phenol red-free medium, followed by adding fresh phenol red-free medium to cell culture dishes. MitoBright LT Deep Red (Dojindo, MT12-12) was diluted in growth medium to prepare a 0.1 μmol/l solution and was used to treat cells for 15 min for total mitochondrial staining. Live cell imaging (5% CO2, 37 °C) was performed using a Zeiss LSM 880 Confocal Laser Scanning Microscope with Zen Black software. On average, ~70 cells were analyzed for each condition per each experimental replicate.
(§2) Following imaging, files were processed using Zen Blue software, and TIFF files of each channel were obtained for analysis. ImageJ was used to obtain readouts for image analysis. All images were converted to 8-bit format. For each respective image, the Lyso dye channel was used to create a mask delineating each lysosomal focus as a region of interest (ROI). Thresholding parameters were adjusted between biological replicates as required to ensure that the Lyso dye ROI encompassed all lysosome foci appropriately, and this was used to create a mask. This was then applied to the corresponding Mtphagy dye channel image, allowing collection of Mtphgy fluorescence intensity readouts for each lysosomal focus. Outliers were removed using Prism software (GraphPad) with the coefficient of removal set to 0.2%. Data was thresholded to exclude lysosomes not containing mitochondria by excluding fluorescence values with intensities equal to or below background levels. The number of ROIs remaining after thresholding was used to quantify lysosomes containing fluorescing mitochondria (mitolysosomes). Fluorescence intensity values for all mitolysosomes per condition per biological replicate were averaged to obtain a value of mitophagy fluorescence intensity per mitolysosome. For each replicate, all values of average mitolysosome fluorescence intensity were normalized to wild-type (vehicle treated) levels for the given replicate.

[1] = test system: LRRK2^G2019S/G2019S KI HEK293 cells; test: Mitophagy (Mtphagy dye / Lyso dye live cell imaging) in LRRK2 G2019S/G2019S KI HEK293 cells; assay type: cell-based, human; settings: 20 μM FCCP, 3 h
Protocol: as §1, §2

LRRK2 kinase = settings: humans ref 15; cited from earlier work

N#CC(C#N)=NNc1ccc(OC(F)(F)F)cc1 [FCCP]
mitophagy following FCCP treatment (wild-type HEK293 cells): increased
mitophagy following FCCP treatment [1]: defect

CNc1nc(Nc2cn(C(C)(C)C#N)nc2C)ncc1C(F)(F)F [DNL201]
inhibition of LRRK2 kinase by blood-based markers (LRRK2 kinase): dose-dependent inhibition
